From patent publication US20100075893A1, “PREPARATION OF A PHARMACEUTICAL COMPOSITION FOR INCREASING BONE MINERAL DENSITY” (priority 2008, published 2010)
Positions of bridges follow the written chain, without caps; N, C: chain ends. No end group written: not given here.

Key:
[1] = test system: C57B1/6J females; test: Bone mineral density increase in mice by slow release CART treatment (in vivo micro-CT, distal femur)
Method: In this experiment mice were treated with 3 different concentrations of CART peptide. The experiment was conducted in 12 weeks old C57B1/6J females and consisted of four experimental groups (n=5 per group). The first group of mice received placebo slow release pellets (SX-999, 60 day slow release pellets, Innovative Research of America, Sarasota, Fla.). The other three groups were treated with SX-999 slow release pellets containing either 20 μg, 50 μg or 100 μg (2×50 μg) rat CART 55-102 peptide (rCART) (Phoenix Pharmaceuticals, Inc. Belmont, Calif.). Mice were sedated with injection anaesthetics (Hypnorm (VetaPharma, Leeds, UK)/Dormicum (Roche, Mijdrecht, The Netherlands)) and the pellets were implanted subcutaneously in the neck. Bone architecture and density was determined at the distal femur at T=0 by an in vivo micro-CT measurement (Skyscan1076 micro-CT scanner, Skyscan, Kontich, Belgium). Scans were performed at 9 μm resolution. Trabecular bone analysis was performed on a 2 mm slice 150 μm proximal to the distal growth plate of the femur. In vivo micro-CT measurements were repeated at day 28 and day 60. The BMD value of the placebo group at T=0, T=28 and T=60 days was set at 100% and the BMD values of the 20 μg, 50 μg and 100 μg (2×50 μg) CART treated groups were calculated relatively to the placebo group. Values are expressed as mean±SD of the individual data. For statistical analysis the treatment groups were compared with the placebo group of the corresponding time point in a standard Student T-test (two-tailed). P<0.05 was considered as significant.

[2] = test system: C57B1/6J females; test: CART slow release formulation vs. daily CART injections, bone mineral density in mice (in vivo micro-CT, distal femur); settings: daily s.c. injections of 2 μg in 0.9% NaCl, 30 days
Method: In this experiment the effectiveness of CART peptide to improve bone mineral density via a slow release formulation was compared with daily injections of CART. The experiment was conducted in 12 weeks old C57B1/6J females and consisted of four experimental groups (n=5 per group). In the first group of mice 2 placebo slow release pellets (SX-999, 60 day pellets, Innovative Research of America, Sarasota, Fla.) were implanted subcutaneously in the neck. In the second group 2 SX-999 slow release pellets containing 50 μg rat CART55-102 (Phoenix Pharmaceuticals, Inc. Belmont, Calif.) each, were implanted subcutaneously in the neck. The other two groups received daily s.c. injections with either vehicle (0.9% NaCl) or with 2 μg rat CART55-102 peptide in 0.9% NaCl. Mice were sedated with injection anaesthetics (Hypnorm (VetaPharma, Leeds, UK)/Dormicum (Roche, Mijdrecht, The Netherlands)) and bone density was determined in the distal femur by an in vivo micro-CT measurement (Skyscan1076 micro CT scanner, Skyscan, Belgium) at T=0 and at T=30 days. Blood was collected weekly by orbita puncture to determine serum CART levels. BMD (g/cm^3) was expressed as mean±SD of the individual data. Statistical analysis was performed using the Student T-test (two-tailed). P<0.05 was considered as significant.

[3] = test system: bovine granulosa cells; test: CART induced suppression of FSH-induced 17β-estradiol production in bovine granulosa cells; type: cell-based; settings: 1 μM CART peptide, 7 days culture
Method: Ovaries from double muscled cows were obtained at a local abattoir and granulosa cells were collected from 3- to 5-mm follicles at random stages of the estrus cycle. Follicles were placed in culture medium (M505 medium (Gibco Invitrogen, Carlsbad, Calif., USA) supplemented with antibiotics (100 IU/ml penicillin and 0.1 mg/ml streptomycin (Invitrogen, Carlsbad, Calif., USA), 10 ng/mL insulin (Schering-Plough, Oss, The Netherlands), 4 ng/mL sodium selenite (Sigma Aldrich, St. Louis, Mo., USA), 5 μg/mL apo-transferrin (Sigma Aldrich, St. Louis, Mo., USA) and 10^−7M androstenedione (Org 6, Schering-Plough, Oss, The Netherlands)) at 37° C. Follicles were ruptured with a needle and the cells were passed through a cell strainer (70 μm nylon, Becton Dickinson, Bedford, USA). Cells were centrifuged for 10 min at 340×g and resuspended in culture medium. Cells (1×10^5 viable cells/well) were cultured in 96 wells plate for 7 days at 37° C. in a humidified atmosphere (5% CO2, 95% air) in the presence of 0, 20, 100 or 300 mUnits FSH (Org 32489, Schering-Plough, Oss, The Netherlands) in combination with […], 10^−7, […], 10^−9, 10^−10, 10^−11 or 10^−12M rat CART 55-102 (Phoenix Pharmaceuticals Inc., Belmont, Calif., USA). […] After 7 days 17β-estradiol levels were determined in the culture medium using a 17β-estradiol ELISA (Diagnostic Systems Laboratories Inc., Marburg, Germany).

Ile-Pro-Ile-Tyr-Glu-Lys-Lys-Tyr-Gly-Gln-Val-Pro-Met-Cys-Asp-Ala-Gly-Glu-Gln-Cys-Ala-Val-Arg-Lys-Gly-Ala-Arg-Ile-Gly-Lys-Leu-Cys-Asp-Cys-Pro-Arg-Gly-Thr-Ser-Cys-Asn-Ser-Phe-Leu-Leu-Lys-Cys-Leu (IPIYEKKYGQVPMCDAGEQCAVRKGARIGKLCDCPRGTSCNSFLLKCL; disulfide 14-32, 20-40, 34-47; ends not checked) [rat CART 55-102, rat CART 55-102 peptide (rCART) (Phoenix Pharmaceuticals, Inc.)]
increase in trabecular bone mineral density (BMD) as compared to the placebo group ([1]; 50 μg rCART in SX-999 slow release pellet s.c., after 60 days): 40-50%
increase in trabecular bone mineral density (BMD) as compared to the placebo group ([1]; 100 μg (2×50 μg) rCART in SX-999 slow release pellets s.c., after 28 days): 50-60%
increase in trabecular bone mineral density (BMD) as compared to the placebo group ([1]; 100 μg (2×50 μg) rCART in SX-999 slow release pellets s.c., after 28 days, listed as CART peptide): 50%
increase in trabecular bone mineral density (BMD) as compared to the placebo group ([1]; 100 μg (2×50 μg) rCART in SX-999 slow release pellets s.c., after 60 days): 80%
increase in BMD [2]: did not show an increase in BMD
suppression of FSH-induced 17β-estradiol production ([3]; 100 mUnits FSH): 1.5 fold
suppression of FSH-induced 17β-estradiol production ([3]; 300 mUnits FSH): 3 fold
